In publication PMC3892053, “Pharmacokinetic/pharmacodynamic modeling for the determination of a cimicoxib dosing regimen in the dog” (BMC Veterinary Research, 2013):

System: kaolin-induced paw inflammation
Test: Kaolin paw inflammation model, observed antipyretic, analgesic and anti-inflammatory effects
Type: in vivo, dog
Details: oral 2 mg/kg; for Maximum effect, analgesia (paw withdrawal time to heat stimulus): 100% = control without inflammation, 2 mg/kg; for Maximum effect, body temperature: % improvement (100% = return to control); for Total duration of the effect, body temperature: time effects superior to placebo
Text: The 12 dogs were regularly trained to get accustomed to experimental and measurements conditions for at least one month before the beginning of the experiment. Furthermore, all the investigators involved received a special training for endpoints measurements. The paw inflammation model used was the kaolin model (1.55 g of Kaolin aseptically injected in the skin under general anesthesia, [15]). The measured endpoints used to evaluate the antipyretic, analgesic and anti-inflammatory effects of the NSAID were the body temperature, the paw circumference, the time to perform a creeping test under a tunnel, the lameness score, the vertical force of the paw on force plates (normalized to the dog’s body weight), the thermal pain threshold and the plantar skin temperature. For body temperature a single measurement was obtained at each time using an electronic thermometer. Paw circumference duplicate measures per time point was done just above the pad using a measuring tape (DMC, Colmar, France). Skin plantar temperature was measured (in degrees Celsius) using an infrared thermometer (Raynger M. Raytek, Fisher Bioblock Scientific - Illkirch – France) at a reference site on the plantar face of the paw, at six different times for each day and measures were performed in triplicate. Data used was the average of the three measurements performed at each time point. Creeping time was measured (in seconds) in a tunnel 6.38 m long, using a stopwatch (digital stopwatch) in triplicate for each time point and creeping speed (m/s) was used as the final measurement for this endpoint. Lameness score was assessed using a numerical rating scale as developed by Giraudel et al.. Vertical normalized force i.e. the maximal vertical force applied on the ground by a hind limb was measured with force plates (SATEL Veto; Patrick Savet, Blagnac, France); for each measurement time, three measures were recorded, the mean values were normalized to the dog’s body weight (Fmax/b.wt., kg/kg) and used in the data analyses. Pain was assessed using a hind paw thermal escape model. The model consisted of exposing the hind limb to a light beam delivered by a Hargreaves apparatus (model 390; IITC Inc., Woodlands Hills, CA). A heat intensity corresponding to 15% of the peak heating value of 150 W was selected. The paw withdrawal time (in seconds) was measured. For each trial, three measures were recorded per measurement time, and the mean of the three measures was used in the data analysis.
The study was conducted according to a classical 2×2 crossover design. Briefly, in period one, half of the dog (3 males and 3 females), received a single oral dose of cimicoxib (approximately 2 mg/kg, one 20 mg capsules – Vetoquinol Lure france) 26.5 h after the induction of kaolin inflammation on the left paw; the other half dogs received a placebo treatment at the same time. In period 2, treatments were crossed over for each dog and inflammation was induced on the right paw. A wash-out delay of at least 5 weeks was applied between the two periods. The treatment (cimicoxib or placebo) was blinded to the investigators.
At least three days before the induction of kaolin inflammation, the PD endpoints were measured twice on the same day to generate negative control values. These endpoints were also measured at 23.5 and 25.5 h after the induction of the inflammation (i.e. before the treatment) to generate positive control values. Subsequently, the PD endpoints were measured at 2, 4, 9, 15 hours after administration (measures on all dogs) and at 22 h and 27 h after administration depending on the presence of further cimicoxib activity.
For PD analysis, a percentage of improvement was calculated for all endpoints (except for the lameness score) following Equation 2:
(2) %improvement=T^+-M/T^+-T^-*100 […]

[1] = the two groups of dogs together

In the case of COc1ccc(-c2c(Cl)ncn2-c2ccc(S(N)(=O)=O)cc2)cc1F [cimicoxib], the “Duration of the maximal effect, analgesia” value (EM dogs) is reported as 7 h (from 2.9 to 9.8 h), the “Duration of the maximal effect, body temperature” value (EM dogs) is reported as 7 h (from 2.1 to 9.1 h) and the “Duration of the maximal effect, creeping speed” value (EM dogs) is reported as 7 h (from 2.2 to 9.2 h). The “Duration of the maximal effect, paw circumference” value (EM dogs) was 9 h (from 2.2 to 11.2 h), the “Duration of the maximal effect, skin plantar temperature” value (EM dogs) was 7 h (from 2.3 to 9.3 h) and the “Duration of the maximal effect, vertical normalized force” value (EM dogs) was 6.9 h (from 2.6 to 9.5 h). The “Total duration of the effect, creeping speed” value (EM dogs) was 15 h, the “Total duration of the effect, paw circumference” value (EM dogs) was 15 h and the “Total duration of the effect, skin plantar temperature” value (EM dogs) was 13 h. The “Total duration of the effect, vertical normalized force” value (EM dogs) was 16 h, the “Maximum effect, analgesia (paw withdrawal time to heat stimulus)” value (EM dogs) was 232 ± 45% and the “Maximum effect, creeping speed” value (EM dogs, % improvement) was 76 ± 9%. The “Maximum effect, paw circumference” value (EM dogs, % improvement) was 14 ± 2%, the “Maximum effect, skin plantar temperature” value (EM dogs, % improvement) was 38 ± 6% and the “Maximum effect, vertical normalized force” value (EM dogs, % improvement) was 68 ± 7%. For the same compound, the “Maximum effect, body temperature” value (EM dogs) was 84 ± 8%, the “Total duration of the effect, body temperature” value (EM dogs) was 13 h and the “Duration of the maximal effect, analgesia” value (PM dogs) was 8.8 h (from 2.9 to 11.8 h). For the same compound, the “Duration of the maximal effect, body temperature” value (PM dogs) was 19.6 h (from 2.1 to 21.7), the “Duration of the maximal effect, clinical lameness score” value (PM dogs) was 10.9 h (from 4.8 to 15.7 h) and the “Duration of the maximal effect, creeping speed” value (PM dogs) was 11.1 h (from 4.2 to 15.3 h). The “Duration of the maximal effect, paw circumference” value (PM dogs) was 7 h (from 4.2 to 11.2 h), the “Duration of the maximal effect, vertical normalized force” value (PM dogs) was 11.1 h (from 4.5 to 15.5 h) and the “Maximum effect, skin plantar temperature” value (PM dogs) was “No plateau observed”. For the same compound, the “Total duration of the effect, analgesia” value (PM dogs) was 23 h, the “Total duration of the effect, creeping speed” value (PM dogs) was 25 h and the “Total duration of the effect, paw circumference” value (PM dogs) was 20 h. The “Total duration of the effect, skin plantar temperature” value (PM dogs) was 22 h, the “Total duration of the effect, vertical normalized force” value (PM dogs) was 28 h and the “Maximum effect, analgesia (paw withdrawal time to heat stimulus)” value (PM dogs) was 152 ± 53%. The “Maximum effect, creeping speed” value (PM dogs, % improvement) was 77 ± 7%, the “Maximum effect, paw circumference” value (PM dogs, % improvement) was 15 ± 3% and the “Maximum effect, vertical normalized force” value (PM dogs, % improvement) was 67 ± 6%. For the same compound, the “Maximum effect, body temperature” value (PM dogs) was 87 ± 9%, the “Total duration of the effect, body temperature” value (PM dogs) was 25 h and the “overall maximal effect, body temperature” value [1] was 86%. For the same compound, the “overall maximal effect, creeping speed” value [1] was 76%.
